Data: a melting point compilation (Tetko et al.; mined from patent text by program, amines drawn as free bases though some values may be those of a salt)

With `CCC12CCC3C4CCCC=C4CCC3C1C=CC2=O` (stereo not drawn) the melting point was 125 °C.
With `CCCCCCc1ccc2c(c1)NC(NC(C)C)=NS2(=O)=O` the melting point was 319 to 321 °C.
`COC(=O)c1cccc(-c2nnn(Cc3ccc(OC)cc3)n2)c1` showed a melting point of 105 to 106 °C.
With `N#Cc1cccc(-c2cnn(-c3ccccn3)c2)c1` the melting point was 160 to 161 °C.
`CCOC(=O)c1[nH]c(C)c(C)c1CC(C)C` gave a melting point of 109 to 111 °C.
In the case of `CCCC(=O)c1nc(CCC)[nH]c1C#N`, the melting point is reported as 94 to 95 °C.
`CCOC(=O)CCCCSc1nc(-c2ccccc2)c(-c2ccccc2)[nH]1` showed a melting point of 87 to 89 °C.
Work on `CCOC(=O)c1ccc(-c2nc(COc3ccc(COc4nn(-c5ccccc5)cc4/C=C/P(=O)(OCC)OCC)cc3OC)c(C)o2)o1` yielded a melting point of 129 to 130 °C.
`COc1ccccc1CNc1ccc2cc(Nc3cc(C)on3)ccc2n1` showed a melting point of 132 °C.
`CCc1cc(C(=O)c2ccccc2Cl)c(-n2c(Cl)nnc2CNC(=O)c2cc3ccccc3[nH]2)s1` gave a melting point of 254 to 256 °C.
`CC(C)N1C(=O)[C@@H](CC(=O)NCC#N)O[C@H](c2ccccc2Cl)c2cc(Cl)ccc21` (relative stereo) gave a melting point of 216 to 217 °C.
With `Cc1ccc(-n2nc3c(cc2=O)CCCc2sc(C=O)cc2-3)cc1` the melting point was 127 to 129 °C.
Molecule `CCCCc1nc(CCNC(=O)OC(C)(C)C)c[nH]1` has a melting point of 118 to 120 °C.
With `CCC#CC(C)(C)NC(=O)C(CC)Oc1cncc(C(=O)O)c1` (stereo not drawn) the melting point was 162 to 164 °C.
Molecule `COC(=O)c1c(Cl)cc(Cl)c2ccc(Cl)cc12` has a melting point of 113 to 115 °C.
`c1ccc(-c2cnc3nncn3c2)cc1` showed a melting point of 231 °C.
For `Cc1cccc(-c2ccccc2)c1C(=O)c1sc(Nc2ccc(N3CCOCC3)cc2)nc1N`, the melting point was 125 to 135 °C.
`CC(C)(C)OC(=O)[C@@H]1CCCN1C[C@@H](O)[C@H](Cc1ccc(F)cc1)NC(=O)[C@H](CC(N)=O)NC(=O)OCc1ccccc1` showed a melting point of 163 to 164 °C.
Molecule `COc1ccc(C2(c3ccc(OC)cc3)CC2(C)Br)cc1` (stereo not drawn) has a melting point of 97 to 104 °C.
With `COc1cc(C(=O)O)c(OC)c2ccccc12` the melting point was 142 to 144 °C.
Work on `O=c1ccccn1CCCn1ccccc1=O` yielded a melting point of 132 °C.
In the case of `CCOC(=O)CN1C(=O)COc2c(Cl)nc(C)nc21`, the melting point is reported as 69 to 70 °C.
Work on `O=C(Cc1ccc(Cl)cc1Cl)Nc1ccccc1` yielded a melting point of 146 °C.
Work on `CN1C(=O)CC[C@]2(C)c3ccc(Sc4ccc([N+](=O)[O-])cn4)cc3CC[C@@H]12` yielded a melting point of 188 to 191 °C.
Molecule `CC1(C)OCC[C@@H]2[C@H](C(O)CBr)C(=O)N21` (stereo partly drawn) has a melting point of 141 to 142 °C.
`Nc1ccc(OCC(=O)N2CC=C(c3ccc(F)cc3)CC2)cc1` gave a melting point of 120 to 122 °C.
`O=c1c2ccccc2nc(-c2sc(Nc3ccccc3)nc2-c2ccccc2)n1-c1ccccc1Cl` showed a melting point of 210 to 212 °C.
In the case of `CC1(C#N)CCCc2nc(-c3ccccc3)ccc21` (stereo not drawn), the melting point is reported as 114 to 116 °C.
Molecule `CC(C)(C)CC(C)(C)c1ccc(O)c(-n2nc3ccccc3n2)c1` has a melting point of 101 to 103 °C.
Molecule `CCCCc1nc(N)c(C(=O)OCC)[nH]1` has a melting point of 103 to 106 °C.
In the case of `Clc1ccccc1CSc1nnc(-c2ccc3c(c2)CCO3)o1`, the melting point is reported as 140 to 141 °C.
`COc1ccc(CN2CCC(c3ccc(-c4cccc(N)n4)cc3)CC2)cc1OC` showed a melting point of 150 to 165 °C.
Molecule `O=C(O)c1ccc(-c2ccc3nnn(Cc4ccc5ncccc5c4)c3n2)cc1` has a melting point of 245 to 247 °C.
For `CCOC(=O)/C=C/c1cn(CC)nc1OCc1ccc(OCc2nc(-c3ccco3)oc2C)c(OC)c1`, the melting point was 149 to 150 °C.
Molecule `CCCCCn1c2ccccc2c2cc(C(=O)OCC)ncc21` has a melting point of 92 to 93 °C.
For `CSc1sc(S(C)(=O)=O)cc1C#N`, the melting point was 126 to 128 °C.
Molecule `CC(=O)NC(=N[N+](=O)[O-])NCc1ccc(Cl)nc1` has a melting point of 125 to 126 °C.
For `Cn1c(C(F)(F)F)cc(=O)n(-c2c(F)cc(Cl)c3c2OC(C)(C)C3=O)c1=O`, the melting point was 160 to 162 °C.
Work on `O=C(Cl)c1ccccc1SCc1ccccc1` yielded a melting point of 113 to 116 °C.
Molecule `COC(=O)CSCC(NC(=O)OC(C)(C)C)c1ccc(F)cc1` (stereo not drawn) has a melting point of 61 to 62 °C.
Molecule `CC(=O)OC1CSC(Oc2cncc(-c3ccc(N4CCCCC4)cc3)c2)C(OC(C)=O)C1OC(C)=O` (stereo not drawn) has a melting point of 196 °C.
With `O=C(CCOc1cccc(CN2CCCCC2)c1)Nc1cccnc1` the melting point was 92 to 96 °C.
In the case of `COc1ccc2c(c1)CN(C(=O)CCCCCN1CCN(c3cccc(C(F)(F)F)c3)CC1)C2`, the melting point is reported as 92 °C.
For `Cc1cc(-c2ccccc2)n2nc(Cl)nc2n1`, the melting point was 179 to 181 °C.
Molecule `COc1ccc(N2CCOCC2)c2sc(C(=O)NCC(=O)c3csc4ccccc34)nc12` has a melting point of 210 °C.
`CCC(O/N=C(\C(=O)O)c1csc(N)n1)C(=O)OC(C)(C)C` (stereo not drawn) showed a melting point of 122 to 124 °C.
Work on `c1ccc(CNc2ccc3ccccc3c2-c2c(P(c3ccccc3)c3ccccc3)ccc3ccccc23)cc1` yielded a melting point of 70.1 °C.
In the case of `COc1cccc(C2(Cl)C(C)(C)C2(C)C)c1OC`, the melting point is reported as 123 to 125 °C.
Work on `CC(=O)OCC(=O)Nc1cc(-c2ccncc2)c[nH]c1=O` yielded a melting point of 267 to 290 °C.
In the case of `Cc1ccc(C(=O)C=CN(C)C)cc1C`, the melting point is reported as 108 to 110 °C.
Molecule `COc1ccc(COc2ccc(CSc3ccc(OCC(=O)O)c4c3CCC4)cc2)cc1` has a melting point of 183 to 185 °C.
With `Cc1c[nH]c2cccc(C3CCCNC3)c12` (stereo not drawn) the melting point was 150 °C.
For `COC(=O)c1cc2c(Nc3ncccn3)cccc2s1`, the melting point was 206 to 208 °C.
Molecule `CC(C(=O)O)c1cccc2cn[nH]c12` (stereo not drawn) has a melting point of 171 to 176 °C.
In the case of `Nc1c(F)c(N2C[C@H](CF)[C@H](N)C2)c(F)c2c1c(=O)c(C(=O)O)cn2C1CC1` (relative stereo), the melting point is reported as 248 to 249 °C.
With `Cc1cc(OC/C=C(/c2ccc(Cl)cc2)c2ccc(C#CC(C)(C)C)cc2)ccc1OCC(=O)O` the melting point was 144 to 147 °C.
`CC(=O)NCc1cccc(CCCOCCCCCCNCC(O)c2cc(Cl)c(N)c(Cl)c2)c1` (stereo not drawn) gave a melting point of 91 to 94 °C.
For `CC(=O)OCC1CCCN(C(=O)c2ccc(NC(=O)c3ccccc3C)cc2)c2ccccc21` (stereo not drawn), the melting point was 155 to 156 °C.
For `CCCC(=O)NCc1c(-c2ccc(C)cc2)nc2ccc3ccccc3n12`, the melting point was 238 to 239 °C.
Molecule `COc1ccc(-c2nc(C(O)(C(F)(F)F)C(F)(F)F)[nH]c2-c2ccc(OC)cc2)cc1` has a melting point of 144 to 146 °C.
For `COC(=O)c1c(Cl)cc(Cl)c2cc(Cl)ccc12`, the melting point was 110 to 112 °C.
Work on `CCCN(CCC)C(=O)Cc1c(-c2ccccc2)nn2cccnc12` yielded a melting point of 103 to 105 °C.
`Cc1c(C(=O)O)cnn1-c1nc(-c2ccc3ccccc3c2)cs1` gave a melting point of 273 to 274 °C.
With `CCCc1c(OCCCCCOc2ccc(C(=O)CCC(=O)O)cc2CCC(=O)O)ccc2c1OCCC2=O` the melting point was 182 to 184 °C.
In the case of `CC(C)COc1ccc(-c2ccc3nnn(Cc4ccc5ncccc5c4)c3n2)cc1F`, the melting point is reported as 115 to 157 °C.
With `CCCCCCCCCCCCCCCCCCC(NC(C)=O)(C(=O)OCC)C(=O)OCC` the melting point was 70 to 71 °C.
With `Clc1ncc(-c2ccccc2)o1` the melting point was 34 °C.
With `CC(=O)OCC1OC(n2cc(C3=C(n4ccnc4)C(=O)N(C)C3=O)c3cccnc32)C(OC(C)=O)C(OC(C)=O)C1OC(C)=O` (stereo not drawn) the melting point was 88 to 90 °C.
`CCCCOc1ccc(C2=CC=CN3CCS(=O)(=O)N=C23)cc1` gave a melting point of 230 to 232 °C.
In the case of `NS(=O)(=O)c1cc2c(cc1Cl)C(O)N(C1CCN(Cc3cccc(C(F)(F)F)c3)CC1)C2=O` (stereo not drawn), the melting point is reported as 204 to 205 °C.
In the case of `Nc1cc(Cl)ncc1F`, the melting point is reported as 110 to 111 °C.
With `CN1CCC(c2nc(-c3ccccc3)c3ccccc3n2)CC1` the melting point was 83 to 86 °C.
Work on `NS(=O)(=O)Oc1cccc(Br)c1` yielded a melting point of 90 to 91.5 °C.
`Cc1cc2c(c(-c3cc(Cl)ccc3Cl)c1)OC(CN)C2` (stereo not drawn) gave a melting point of 155 to 156 °C.
For `CCCC1CC(O)N(C(C)=O)C1(C(=O)OCC)C(=O)OCC` (stereo not drawn), the melting point was 105 to 106 °C.
`CC12CC(=O)C3C(CCC4CC(O)CCC43C)C1CCC2C(=O)CCN1C(=O)c2ccccc2C1=O` (stereo not drawn) showed a melting point of 187 to 189 °C.
`CCOc1cc2c(cc1OCC)C(CC)C(C)=NN=C2c1ccc(OC)c(OC)c1` (stereo not drawn) gave a melting point of 91 to 93 °C.
Work on `COc1ccc(OC)c(Nc2c(-c3ccc(S(C)(=O)=O)cc3)cnn(CC(F)(F)F)c2=O)c1` yielded a melting point of 95 to 96 °C.
With `N#Cc1ccc(-c2cnc(Cl)o2)cc1` the melting point was 144 °C.
Work on `Cc1cc(CN(Cc2cc(C(F)(F)F)cc(C(F)(F)F)c2)c2nnn(C)n2)c(N(CC2CC2)CC2CC2)nc1C` yielded a melting point of 103 °C.
Molecule `CCC(Sc1ccc(OC)c(Cl)c1Cl)C(=O)O` (stereo not drawn) has a melting point of 143 to 145 °C.
In the case of `CCCCCCC(O)CCCCCCCCCCC(N)=O` (stereo not drawn), the melting point is reported as 98 to 99 °C.
In the case of `CCON(Cc1ccc(F)cc1)C(=O)C1=C(O)C(=O)N(C)C1`, the melting point is reported as 113 to 114 °C.
`CC(=O)Nc1ccc(N=O)cc1` showed a melting point of 179 to 180 °C.
`CCOC(=O)C1=C(COCCN=[N+]=[N-])NC(C)=C(C(=O)OC)C1c1ccccc1Cl` (stereo not drawn) showed a melting point of 145 to 146 °C.
`CCOC(=O)c1[nH]c2ccc(Cl)cc2c1N` gave a melting point of 126 to 127 °C.
Molecule `COC(=O)C(=O)c1ccc(OCCOc2ccc3ccccc3c2)c(F)c1` has a melting point of 136 to 138 °C.
With `OC(CCCN1CCC(c2ncco2)CC1)c1ccc(F)cc1` (stereo not drawn) the melting point was 99 to 100 °C.
Molecule `CC(C)N1CCN(C(=O)OC2C3=C(SCCS3)C(=O)N2c2ccc(Cl)cn2)CC1` (stereo not drawn) has a melting point of 130 to 135 °C.
With `O=C(O)/C=C/c1c(C2CC2)nc2ccccc2c1-c1ccc(F)cc1` the melting point was 173 to 174 °C.
`COC(=O)c1nc(-c2ccccc2)n(-c2ccc(Cl)cc2)n1` showed a melting point of 136 to 137 °C.
For `COc1ccc(-c2cnc(N)c(SC)n2)cc1`, the melting point was 139 to 140 °C.
`CC(C)c1nn(-c2ncc(C(F)(F)F)cn2)cc1CCCO` gave a melting point of 98 to 99 °C.
With `Cc1[nH]c(=O)cnc1-c1ccc(NC(=O)OCc2ccccc2)cc1` the melting point was 232 °C.
`O=C1C2CC(F)CCN2C(=O)N1c1ncc(Cl)cc1F` (stereo not drawn) gave a melting point of 154 to 157 °C.
Molecule `O=C1CCC(c2ccc(Br)cc2)CC1` has a melting point of 59.4 to 61.4 °C.
With `N#CC1CN1C(=O)C1(c2ccc(Cl)cc2)CCCC1` (stereo not drawn) the melting point was 80 to 82 °C.
`Oc1cccc2c1nc(-c1c(F)cccc1F)n2Cc1c(F)cccc1F` gave a melting point of 257 to 259 °C.
`NC(=O)C[C@H](NC(=O)c1ccc(OCc2ccccc2)cc1OCc1ccccc1)C(=O)N1CCN(Cc2ccccc2)CC1` gave a melting point of 66 to 68 °C.
For `CC(C)[Si](C#Cc1ccc(-c2nc3cc(C#N)c(C#N)cc3[nH]2)cc1)(C(C)C)C(C)C`, the melting point was 347 to 348 °C.
Molecule `N#CC(C(N)=S)=C(N)N1CCCC1` has a melting point of 164 °C.
`O=C(Cc1ccccc1)N1CC2COCC2C1` (stereo not drawn) showed a melting point of 47.5 to 48.5 °C.
Molecule `C1=C(CCc2ccccc2)CCN(Cc2n[nH]c3c2CCc2ccccc2-3)C1` has a melting point of 173 to 174 °C.
